Literature values, collected in US7528137B2, “Compounds, compositions, and methods” (Cytokinetics, Inc., priority 2002, dated 2009).

Test system: A549 cells
Settings: data provided by National Cancer Institute, Developmental Therapeutic Program

With `CC(=O)O[C@H]1C(=O)[C@@]2(C)[C@H]([C@H](OC(=O)c3ccccc3)[C@]3(O)C[C@H](OC(=O)[C@H](O)[C@@H](NC(=O)c4ccccc4)c4ccccc4)C(C)=C1C3(C)C)[C@]1(OC(C)=O)CO[C@@H]1C[C@@H]2O` [paclitaxel] as the compound, how does the GI50 read?
Its GI50 is 4 nM.

Which GI50 does the source give for `O=c1[nH]cc(F)c(=O)[nH]1` [5-fluorouracil] here?
Its GI50 is 1000 nM.

With `COc1cccc2c1C(=O)c1c(O)c3c(c(O)c1C2=O)C[C@@](O)(C(=O)CO)C[C@@H]3O[C@H]1C[C@H](N)[C@H](O)[C@H](C)O1` [doxorubicin] as the compound, how does the GI50 read?
The GI50 was 63 nM.

With `NC(=O)NO` [hydroxyurea] as the compound, how does the GI50 read?
Its GI50 is 500000 nM.
